Results on 25 molecules are retold here after patent US20260216170A1, “TETRAHYDROISOQUINOLINE HETEROBIFUNCTIONAL BCL-XL DEGRADERS” (Treeline Biosciences, Inc., priority 2023, published 2026).

The target of the assay is T1, Human BCL-XL protein (N-terminal HiBiT tagged BCL-XL expressed in HT1080 cells) (Homo sapiens, UniProt Q07817).
T1 construct: expressed in transfected cells; host or cells: HT-1080 (ATCC CCL-121), stably transduced with lentivirus pLV-UBC-N-HiBiT-BCL-XL-PGK-puro and selected with puromycin
T1 sequence (Q07817 whole entry): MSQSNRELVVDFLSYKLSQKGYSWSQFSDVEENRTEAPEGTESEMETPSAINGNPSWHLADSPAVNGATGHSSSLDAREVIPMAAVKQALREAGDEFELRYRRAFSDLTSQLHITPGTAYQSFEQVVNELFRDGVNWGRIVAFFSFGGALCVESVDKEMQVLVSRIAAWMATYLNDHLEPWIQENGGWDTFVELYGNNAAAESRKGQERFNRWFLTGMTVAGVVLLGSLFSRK
The assay is described as follows: HiBiT Based Degradation Assay. The format is cell-based. Conditions: 24 hours incubation; for DC50: BCL-XL degradation, HT1080 cells expressing N-HiBiT-BCL-XL, normalized with DMSO control, geometric mean for multiple data points, read-out: EC50 (24 h); for Ymin (24 h): bottom of BCL-XL degradation curve (remaining HiBiT-BCL-XL signal vs DMSO control), HT1080 cells. In outline:
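BCL-XL degradation was read as Nano-Glo HiBiT lytic luminescence relative to DMSO after a 24 h compound treatment of HT1080 cells carrying stably integrated N-HiBiT-BCL-XL. EC50 values come from four-parameter logistic curves, with the hook-curve minimum fixed as bottom, and are geometric means where tested repeatedly.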

Each structure is given as a SMILES string. Where only a bound is given, the exact number is not on record here.

Turning to `Cn1nc(C2CCC(=O)NC2=O)c2ccc(NC(=O)CN3CCC(CCCOc4cccc(-c5ccc(N6CCc7cccc(C(=O)Nc8nc9ccccc9s8)c7C6)nc5C(=O)O)c4F)CC3)cc21` (centres unmarked) [Compound 198], the DC50 lay within 10 to 100 nM and the “Ymin (24 h)” value is listed as “B (30% ≤ Ymin < 50%)”.
Turning to `Cn1nc(C2CCC(=O)NC2=O)c2ccc(NC(=O)CN3CCC(CCCOc4ccc(-c5ccc(N6CCc7cccc(C(=O)Nc8nc9ccccc9s8)c7C6)nc5C(=O)O)c(F)c4)CC3)cc21` (centres unmarked) [Compound 199], the DC50 was under 10 nM and the “Ymin (24 h)” value is “A (Ymin < 30%)”.
The matching figures for `COc1c(NC(=O)CN2CCC(CCCOc3cccc(-c4ccc(N5CCc6cccc(C(=O)Nc7nc8ccccc8s7)c6C5)nc4C(=O)O)c3F)CC2)ccc2c(C3CCC(=O)NC3=O)nn(C)c12` (centres unmarked) [Compound 200]: 10 to 100 nM and “B (30% ≤ Ymin < 50%)”.
Turning to `COc1c(NC(=O)CN2CCC(CCCOc3ccc(-c4ccc(N5CCc6cccc(C(=O)Nc7nc8ccccc8s7)c6C5)nc4C(=O)O)c(F)c3)CC2)ccc2c(C3CCC(=O)NC3=O)nn(C)c12` (centres unmarked) [Compound 201], the DC50 was 10 to 100 nM and the “Ymin (24 h)” value was “A (Ymin < 30%)”.
In the case of `Cn1nc(C2CCC(=O)NC2=O)c2ccc(NC(=O)CN3CCC4(CC3)CC(Oc3cccc(-c5ccc(N6CCc7ccnc(C(=O)Nc8nc9ccccc9s8)c7C6)nc5C(=O)O)c3C(F)(F)F)C4)nc21` (centres unmarked) [Compound 202, 6-(8-(benzo[d]thiazol-2-ylcarbamoyl)-3,4-dihydro-2,7-naphthyridin-2(1H)-yl)-3-(3-((7-(2-((3-(2,6-dioxopiperidin-3-yl)-1-methyl-1H-pyrazolo[3,4-b]pyridin-6-yl)amino)-2-oxoethyl)-7-azaspiro[3.5]nonan-2-yl)oxy)-2-(trifluoromethyl)phenyl)picolinic acid], the DC50 was under 10 nM and the “Ymin (24 h)” value is on record as “B (30% ≤ Ymin < 50%)”.
Regarding `Cn1nc(C2CCC(=O)NC2=O)c2ccc(NC(=O)CN3CCC4(CC3)CC(Oc3ccc(-c5ccc(N6CCc7ccnc(C(=O)Nc8nc9ccccc9s8)c7C6)nc5C(=O)O)c(C(F)(F)F)c3)C4)c(F)c21` (centres unmarked) [Compound 203], the DC50 was 10 to 100 nM and the “Ymin (24 h)” value is given as “B (30% ≤ Ymin < 50%)”.
`Cc1c(OC2CC3(CCN(CC(=O)Nc4ccc5c(C6CCC(=O)NC6=O)nn(C)c5c4F)CC3)C2)cccc1-c1ccc(N2CCc3ccnc(C(=O)Nc4nc5ccccc5s4)c3C2)nc1C(=O)O` (centres unmarked) [Compound 204, 6-(8-(benzo[d]thiazol-2-ylcarbamoyl)-3,4-dihydro-2,7-naphthyridin-2(1H)-yl)-3-(3-((7-(2-((3-(2,6-dioxopiperidin-3-yl)-7-fluoro-1-methyl-1H-indazol-6-yl)amino)-2-oxoethyl)-7-azaspiro[3.5]nonan-2-yl)oxy)-2-methylphenyl)picolinic acid]: the DC50 was under 10 nM and the “Ymin (24 h)” value is recorded as “B (30% ≤ Ymin < 50%)”.
The matching figures for `Cc1cc(OC2CC3(CCN(CC(=O)Nc4ccc5c(C6CCC(=O)NC6=O)nn(C)c5c4F)CC3)C2)ccc1-c1ccc(N2CCc3ccnc(C(=O)Nc4nc5ccccc5s4)c3C2)nc1C(=O)O` (centres unmarked) [Compound 205]: under 10 nM and “A (Ymin < 30%)”.
With `Cn1nc(C2CCC(=O)NC2=O)c2ccc(NC(=O)CN3CCC4(CC3)CC(Oc3ccc(-c5ccc(N6CCc7ccnc(C(=O)Nc8nc9ccccc9s8)c7C6)nc5C(=O)O)c(C(F)(F)F)c3)C4)nc21` (centres unmarked) [Compound 206], the DC50 is 10 to 100 nM and the “Ymin (24 h)” value was “B (30% ≤ Ymin < 50%)”.
Turning to `Cc1c(OC2CC3(CCN(CC(=O)Nc4ccc5c(C6CCC(=O)NC6=O)nn(C)c5n4)CC3)C2)cccc1-c1ccc(N2CCc3ccnc(C(=O)Nc4nc5ccccc5s4)c3C2)nc1C(=O)O` (centres unmarked) [Compound 207, 6-[8-(1,3-benzothiazol-2-ylcarbamoyl)-3,4-dihydro-1H-2,7-naphthyridin-2-yl]-3-[3-[[7-[2-[[3-(2,6-dioxo-3-piperidyl)-1-methyl-pyrazolo[3,4-b]pyridin-6-yl]amino]-2-oxo-ethyl]-7-azaspiro[3.5]nonan-2-yl]oxy]-2-methyl-phenyl]pyridine-2-carboxylic acid], the DC50 is under 10 nM and the “Ymin (24 h)” value is recorded as “B (30% ≤ Ymin < 50%)”.
With `Cc1c(OCCC[C@@H]2CCN(CC(=O)Nc3ccc4c(C5CCC(=O)NC5=O)nn(C)c4c3)[C@@H](C)C2)cccc1-c1ccc(N2CCc3cccc(C(=O)Nc4nc5ccccc5s4)c3C2)nc1C(=O)O` (some centres unmarked) [Compound 208a], the DC50 is 10 to 100 nM and the “Ymin (24 h)” value is listed as “B (30% ≤ Ymin < 50%)”.
For `COc1c(NC(=O)CN2CC[C@H](CCCOc3cccc(-c4ccc(N5CCc6cccc(C(=O)Nc7nc8ccccc8s7)c6C5)nc4C(=O)O)c3C)C[C@@H]2C)ccc2c(C3CCC(=O)NC3=O)nn(C)c12` (some centres unmarked) [Compound 208b], in that order: 10 to 100 nM and “B (30% ≤ Ymin < 50%)”.
For the molecule `COc1c(NC(=O)CN2CC[C@H](CCCOc3cccc(-c4ccc(N5CCc6cccc(C(=O)Nc7nc8ccccc8s7)c6C5)nc4C(=O)O)c3C)C[C@H]2C)ccc2c(C3CCC(=O)NC3=O)nn(C)c12` (some centres unmarked) [Compound 208c], the DC50 fell in the range of 10 to 100 nM and the “Ymin (24 h)” value is listed as “B (30% ≤ Ymin < 50%)”.
`COc1c(NC(=O)CN2CC[C@@H](CCCOc3cccc(-c4ccc(N5CCc6cccc(C(=O)Nc7nc8ccccc8s7)c6C5)nc4C(=O)O)c3C)C[C@H]2C)ccc2c(C3CCC(=O)NC3=O)nn(C)c12` (some centres unmarked) [Compound 208d]: the DC50 lay in the range of 10 to 100 nM and the “Ymin (24 h)” value is reported as “B (30% ≤ Ymin < 50%)”.
The matching figures for `C[C@H]1C[C@@H](CCCOc2ccc(-c3ccc(N4CCc5cccc(C(=O)Nc6nc7ccccc7s6)c5C4)nc3C(=O)O)c(C(F)(F)F)c2)CCN1CC(=O)Nc1ccc2c(C3CCC(=O)NC3=O)nn(C)c2c1` (stereo partly drawn) [Compound 209a, 6-(8-(benzo[d]thiazol-2-ylcarbamoyl)-3,4-dihydroisoquinolin-2(1H)-yl)-3-(4-(3-((2S,4S)-1-(2-((3-(2,6-dioxopiperidin-3-yl)-1-methyl-1H-indazol-6-yl)amino)-2-oxoethyl)-2-methylpiperidin-4-yl)propoxy)-2-(trifluoromethyl)phenyl)picolinic acid]: 10 to 100 nM and “A (Ymin < 30%)”.
Regarding `C[C@H]1C[C@H](CCCOc2ccc(-c3ccc(N4CCc5cccc(C(=O)Nc6nc7ccccc7s6)c5C4)nc3C(=O)O)c(C(F)(F)F)c2)CCN1CC(=O)Nc1ccc2c(C3CCC(=O)NC3=O)nn(C)c2c1` (some centres unmarked) [Compound 209b], the DC50 lay within 10 to 100 nM and the “Ymin (24 h)” value is “B (30% ≤ Ymin < 50%)”.
Turning to `C[C@@H]1C[C@H](CCCOc2ccc(-c3ccc(N4CCc5cccc(C(=O)Nc6nc7ccccc7s6)c5C4)nc3C(=O)O)c(C(F)(F)F)c2)CCN1CC(=O)Nc1ccc2c(C3CCC(=O)NC3=O)nn(C)c2c1` (some centres unmarked) [Compound 209c], the DC50 was under 10 nM and the “Ymin (24 h)” value is “A (Ymin < 30%)”.
On to `C[C@@H]1C[C@@H](CCCOc2ccc(-c3ccc(N4CCc5cccc(C(=O)Nc6nc7ccccc7s6)c5C4)nc3C(=O)O)c(C(F)(F)F)c2)CCN1CC(=O)Nc1ccc2c(C3CCC(=O)NC3=O)nn(C)c2c1` (some centres unmarked) [Compound 209d], for which the DC50 is under 10 nM and the “Ymin (24 h)” value is recorded as “B (30% ≤ Ymin < 50%)”.
Regarding `Cc1cc(OCCC[C@@H]2CCN(CC(=O)Nc3ccc4c(C5CCC(=O)NC5=O)nn(C)c4c3)[C@@H](C)C2)ccc1-c1ccc(N2CCc3cccc(C(=O)Nc4nc5ccccc5s4)c3C2)nc1C(=O)O` (some centres unmarked) [Compound 210a], the DC50 lay in the range of 10 to 100 nM and the “Ymin (24 h)” value is recorded as “A (Ymin < 30%)”.
For the molecule `COc1c(NC(=O)CN2CC[C@H](CCCOc3ccc(-c4ccc(N5CCc6cccc(C(=O)Nc7nc8ccccc8s7)c6C5)nc4C(=O)O)c(C)c3)C[C@@H]2C)ccc2c(C3CCC(=O)NC3=O)nn(C)c12` (some centres unmarked) [Compound 210b], the DC50 fell in the range of 10 to 100 nM and the “Ymin (24 h)” value is on record as “A (Ymin < 30%)”.
For the molecule `COc1c(NC(=O)CN2CC[C@H](CCCOc3ccc(-c4ccc(N5CCc6cccc(C(=O)Nc7nc8ccccc8s7)c6C5)nc4C(=O)O)c(C)c3)C[C@H]2C)ccc2c(C3CCC(=O)NC3=O)nn(C)c12` (some centres unmarked) [Compound 210c], the DC50 is under 10 nM and the “Ymin (24 h)” value is “A (Ymin < 30%)”.
Turning to `COc1c(NC(=O)CN2CC[C@@H](CCCOc3ccc(-c4ccc(N5CCc6cccc(C(=O)Nc7nc8ccccc8s7)c6C5)nc4C(=O)O)c(C)c3)C[C@H]2C)ccc2c(C3CCC(=O)NC3=O)nn(C)c12` (some centres unmarked) [Compound 210d], the DC50 lay within 10 to 100 nM and the “Ymin (24 h)” value is on record as “A (Ymin < 30%)”.
Take `Cn1nc(C2CCC(=O)NC2=O)c2ccc(NC(=O)CN3CCC(CCCOc4cccc(-c5ccc(N6CCc7cccc(C(=O)Nc8nc9ccccc9s8)c7C6)nc5C(=O)O)c4F)CC3)c(F)c21` (centres unmarked) [Compound 211]: the DC50 lay within 10 to 100 nM and the “Ymin (24 h)” value is listed as “C (50% ≤ Ymin < 70%)”.
As for `Cn1nc(C2CCC(=O)NC2=O)c2ccc(NC(=O)CN3CCC(CCCOc4ccc(-c5ccc(N6CCc7cccc(C(=O)Nc8nc9ccccc9s8)c7C6)nc5C(=O)O)c(F)c4)CC3)c(F)c21` (centres unmarked) [Compound 212, 6-(8-(benzo[d]thiazol-2-ylcarbamoyl)-3,4-dihydroisoquinolin-2(1H)-yl)-3-(4-(3-(1-(2-((3-(2,6-dioxopiperidin-3-yl)-7-fluoro-1-methyl-1H-indazol-6-yl)amino)-2-oxoethyl)piperidin-4-yl)propoxy)-2-fluorophenyl)picolinic acid], the DC50 was in the range of 10 to 100 nM and the “Ymin (24 h)” value is recorded as “B (30% ≤ Ymin < 50%)”.
Take `Cc1cc(OC2CC3(CCN(CC(=O)Nc4ccc5c(C6CCC(=O)NC6=O)nn(C)c5n4)CC3)C2)ccc1-c1ccc(N2CCc3ccnc(C(=O)Nc4nc5ccccc5s4)c3C2)nc1C(=O)O` (centres unmarked) [Compound 213]: the DC50 was under 10 nM and the “Ymin (24 h)” value is listed as “A (Ymin < 30%)”.
